Test results published in ChEMBL document CHEMBL3352074, “Novel ROCK inhibitors for the treatment of pulmonary arterial hypertension” (Bioorg Med Chem Lett, 2014).

Columns and labels:
[1] = AUC (0 to 6 hrs) in mouse lung at 1 mg/kg, iv; type: ADME, organism-based; design: time < 6 hr, dose 1 mg/kg, route intravenous
[2] = AUC (0 to 6 hrs) in mouse lung at 1 mg/kg, it; type: ADME, organism-based; design: time < 6 hr, dose 1 mg/kg, route endotracheal; settings: inhaled or intranasal
[3] = AUC (0 to 6 hrs) in mouse plasma at 1 mg/kg, it; type: ADME, organism-based; design: time < 6 hr, dose 1 mg/kg, route endotracheal; settings: inhaled or intranasal
[4] = Apparent permeability from apical to basolateral side across human Caco2 cells; type: ADME, cell-based; settings: Caco-2
[5] = AUC (0 to 6 hrs) in mouse plasma at 1 mg/kg, iv; type: ADME, organism-based; design: time < 6 hr, dose 1 mg/kg, route intravenous
[6] = Drug concentration in Balb/C mouse lung at 1 mg/kg, it after 3 hrs; type: ADME, organism-based; design: dose 1 mg/kg, route endotracheal; settings: inhaled or intranasal, read-out: Drug uptake
[7] = Drug concentration in Balb/C mouse lung at 1 mg/kg, iv after 0.5 hrs; type: ADME, organism-based; design: dose 1 mg/kg, route intravenous; settings: read-out: Drug uptake
[8] = Drug concentration in Balb/C mouse lung at 1 mg/kg, it after 0.5 hrs; type: ADME, organism-based; design: dose 1 mg/kg, route endotracheal; settings: inhaled or intranasal, read-out: Drug uptake
[9] = Drug concentration in Balb/C mouse lung at 1 mg/kg, iv after 3 hrs; type: ADME, organism-based; design: dose 1 mg/kg, route intravenous; settings: read-out: Drug uptake
[10] = Plasma concentration in Balb/C mouse at 1 mg/kg, iv after 3 hrs; type: ADME, organism-based; design: dose 1 mg/kg, route intravenous
[11] = Plasma concentration in Balb/C mouse at 1 mg/kg, it after 0.5 hrs; type: ADME, organism-based; design: dose 1 mg/kg, route endotracheal; settings: inhaled or intranasal
[12] = Plasma concentration in Balb/C mouse at 1 mg/kg, it after 3 hrs; type: ADME, organism-based; design: dose 1 mg/kg, route endotracheal; settings: inhaled or intranasal
[13] = Plasma concentration in Balb/C mouse at 1 mg/kg, iv after 0.5 hrs; type: ADME, organism-based; design: dose 1 mg/kg, route intravenous

Row | SMILES | AUC(0-t) at 6 h [1] [µM·h] | AUC(0-t) at 6 h [2] [µM·h] | AUC(0-t) at 6 h [3] [µM·h] | Papp A→B [4] [×10⁻⁶ cm/s] | AUC(0-t) at 6 h [5] [µM·h] | concentration at 3 h [6] [nM] | concentration at 0.5 h [7] [nM] | concentration at 0.5 h [8] [nM] | concentration at 3 h [9] [nM] | concentration at 3 h [10] [nM] | concentration at 0.5 h [11] [nM] | concentration at 3 h [12] [nM] | concentration at 0.5 h [13] [nM]
1 | c1ccc2c(N3CCNCC3)nc(-c3ccc4[nH]ncc4c3)nc2c1 | 5.92 | 9.31 | 0.665 | 5.65 | 0.642 | – | – | – | – | – | – | – | –
2 | c1cc2c(N3CCNCC3)nc(-c3ccc4[nH]ncc4c3)nc2cn1 | 3.01 | 16 | 0.302 | – | 0.372 | 1900 | 2000 | 32500 | 200 | 10 | 500 | 20 | 400
